{"source": "ChEMBL document CHEMBL4330132", "about": "“5-Keto-3-cyano-2,4-diaminothiophenes as selective maternal embryonic leucine zipper kinase inhibitors” (Bioorg Med Chem Lett, 2019)", "key": {"[1]": {"target": "Hormonally up-regulated neu tumor-associated kinase (Homo sapiens) (UniProt P57058)", "experiment": "Binding affinity to wild-type human partial length HUNK (A31 to K354 residues) expressed in bacterial expression system assessed as residual binding level at 1 uM by Kinomescan method relative to control"}, "[2]": {"target": "Ribosomal protein S6 kinase alpha-2 (Homo sapiens) (UniProt Q15349)", "sequence (Q15349 whole entry, the tested form may be a part)": "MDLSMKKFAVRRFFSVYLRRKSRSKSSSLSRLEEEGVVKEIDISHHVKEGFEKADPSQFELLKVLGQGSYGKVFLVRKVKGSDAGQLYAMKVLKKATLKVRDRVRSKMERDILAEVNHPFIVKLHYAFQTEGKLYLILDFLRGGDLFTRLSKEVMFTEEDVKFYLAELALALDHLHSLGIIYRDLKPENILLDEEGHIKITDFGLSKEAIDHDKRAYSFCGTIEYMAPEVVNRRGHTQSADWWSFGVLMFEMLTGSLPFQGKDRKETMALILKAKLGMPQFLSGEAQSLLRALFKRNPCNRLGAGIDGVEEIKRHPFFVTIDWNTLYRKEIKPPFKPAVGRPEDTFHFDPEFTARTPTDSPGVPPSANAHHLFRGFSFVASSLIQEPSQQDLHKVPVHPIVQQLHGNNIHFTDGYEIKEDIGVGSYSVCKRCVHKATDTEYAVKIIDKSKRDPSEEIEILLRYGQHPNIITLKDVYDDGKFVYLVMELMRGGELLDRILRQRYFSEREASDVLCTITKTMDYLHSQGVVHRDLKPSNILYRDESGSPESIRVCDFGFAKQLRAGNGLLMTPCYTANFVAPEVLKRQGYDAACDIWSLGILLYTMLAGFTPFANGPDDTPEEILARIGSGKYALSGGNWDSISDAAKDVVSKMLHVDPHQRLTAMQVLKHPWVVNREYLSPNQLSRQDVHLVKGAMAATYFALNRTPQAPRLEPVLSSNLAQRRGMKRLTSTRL", "experiment": "Binding affinity to wild-type human partial length C-terminal RSK3 kinase domain 2 (V403 to K700 residues) expressed in bacterial expression system assessed as residual binding level at 1 uM by Kinomescan method relative to control"}, "[3]": {"target": "Proto-oncogene tyrosine-protein kinase Src (Homo sapiens) (UniProt P12931)", "experiment": "Binding affinity to wild-type human partial length SRC (L240 to L536 residues) expressed in bacterial expression system assessed as residual binding level at 1 uM by Kinomescan method relative to control"}, "[4]": {"target": "Myosin light chain kinase, smooth muscle (Homo sapiens) (UniProt Q15746)", "experiment": "Binding affinity to wild-type human full length MYLK (M854 to E1845 residues) expressed in mammalian expression system assessed as residual binding level at 1 uM by Kinomescan method relative to control"}, "[5]": {"target": "Calcium/calmodulin-dependent protein kinase type II subunit delta (Homo sapiens) (UniProt Q13557)", "experiment": "Binding affinity to wild-type human partial length CAMK2D (M1 to E329 residues) expressed in bacterial expression system assessed as residual binding level at 1 uM by Kinomescan method relative to control"}, "[6]": {"target": "Tyrosine-protein kinase receptor TYRO3 (Homo sapiens) (UniProt Q06418)", "sequence (Q06418 whole entry, the tested form may be a part)": "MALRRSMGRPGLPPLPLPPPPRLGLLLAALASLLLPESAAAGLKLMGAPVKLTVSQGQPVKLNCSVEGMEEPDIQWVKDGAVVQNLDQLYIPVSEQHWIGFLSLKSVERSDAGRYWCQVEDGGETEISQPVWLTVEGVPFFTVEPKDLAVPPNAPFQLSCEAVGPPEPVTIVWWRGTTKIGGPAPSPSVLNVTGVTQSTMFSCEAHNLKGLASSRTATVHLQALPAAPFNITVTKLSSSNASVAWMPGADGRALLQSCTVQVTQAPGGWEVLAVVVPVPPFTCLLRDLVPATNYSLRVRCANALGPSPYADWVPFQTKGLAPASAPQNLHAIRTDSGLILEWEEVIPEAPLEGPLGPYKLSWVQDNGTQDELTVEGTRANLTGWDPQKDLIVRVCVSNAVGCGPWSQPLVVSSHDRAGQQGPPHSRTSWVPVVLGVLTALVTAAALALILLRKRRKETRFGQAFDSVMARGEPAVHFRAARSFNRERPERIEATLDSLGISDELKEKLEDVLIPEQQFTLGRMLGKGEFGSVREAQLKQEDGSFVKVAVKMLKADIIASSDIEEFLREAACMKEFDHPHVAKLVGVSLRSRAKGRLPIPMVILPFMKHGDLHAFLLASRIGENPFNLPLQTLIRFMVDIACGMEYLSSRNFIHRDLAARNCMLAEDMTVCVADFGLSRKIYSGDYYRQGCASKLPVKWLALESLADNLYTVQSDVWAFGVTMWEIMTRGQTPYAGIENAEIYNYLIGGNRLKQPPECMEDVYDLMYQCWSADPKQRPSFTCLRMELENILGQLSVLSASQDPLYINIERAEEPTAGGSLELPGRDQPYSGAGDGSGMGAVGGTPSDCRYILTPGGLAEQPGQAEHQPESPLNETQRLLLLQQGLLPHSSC", "experiment": "Binding affinity to wild-type human partial length TYRO3 (S497 to T814 residues) expressed in bacterial expression system assessed as residual binding level at 1 uM by Kinomescan method relative to control"}, "[7]": {"target": "Dual specificity testis-specific protein kinase 1 (Homo sapiens) (UniProt Q15569)", "sequence (Q15569 whole entry, looked up, the tested form may be a part)": "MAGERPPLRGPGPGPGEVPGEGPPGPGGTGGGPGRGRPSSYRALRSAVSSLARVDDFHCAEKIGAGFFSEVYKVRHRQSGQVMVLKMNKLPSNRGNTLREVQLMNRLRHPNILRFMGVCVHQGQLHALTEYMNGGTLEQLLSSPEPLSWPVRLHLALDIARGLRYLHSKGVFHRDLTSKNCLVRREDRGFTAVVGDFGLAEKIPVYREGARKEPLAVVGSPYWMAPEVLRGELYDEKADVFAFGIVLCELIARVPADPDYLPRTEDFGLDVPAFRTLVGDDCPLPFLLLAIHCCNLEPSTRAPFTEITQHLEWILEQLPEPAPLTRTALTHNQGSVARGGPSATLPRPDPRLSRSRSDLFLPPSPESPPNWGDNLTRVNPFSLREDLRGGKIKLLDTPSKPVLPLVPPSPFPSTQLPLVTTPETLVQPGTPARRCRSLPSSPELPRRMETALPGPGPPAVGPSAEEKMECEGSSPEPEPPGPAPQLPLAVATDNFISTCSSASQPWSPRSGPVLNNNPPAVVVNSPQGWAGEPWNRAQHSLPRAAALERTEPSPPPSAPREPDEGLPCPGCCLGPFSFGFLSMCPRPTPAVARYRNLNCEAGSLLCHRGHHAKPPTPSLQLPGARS", "experiment": "Binding affinity to wild-type human full length TESK1 (R37 to S626 residues) expressed in bacterial expression system assessed as residual binding level at 1 uM by Kinomescan method relative to control"}, "[8]": {"target": "Non-receptor tyrosine-protein kinase TYK2 (Homo sapiens) (UniProt P29597)", "experiment": "Binding affinity to wild-type human partial length TYK2 JH1 catalytic domain (V877 to C1187 residues) expressed in mammalian expression system assessed as residual binding level at 1 uM by Kinomescan method relative to control"}, "[9]": {"target": "Phosphatidylinositol 4,5-bisphosphate 3-kinase catalytic subunit beta isoform (Homo sapiens) (UniProt P42338)", "sequence (P42338 whole entry, looked up, the tested form may be a part, canonical isoform)": "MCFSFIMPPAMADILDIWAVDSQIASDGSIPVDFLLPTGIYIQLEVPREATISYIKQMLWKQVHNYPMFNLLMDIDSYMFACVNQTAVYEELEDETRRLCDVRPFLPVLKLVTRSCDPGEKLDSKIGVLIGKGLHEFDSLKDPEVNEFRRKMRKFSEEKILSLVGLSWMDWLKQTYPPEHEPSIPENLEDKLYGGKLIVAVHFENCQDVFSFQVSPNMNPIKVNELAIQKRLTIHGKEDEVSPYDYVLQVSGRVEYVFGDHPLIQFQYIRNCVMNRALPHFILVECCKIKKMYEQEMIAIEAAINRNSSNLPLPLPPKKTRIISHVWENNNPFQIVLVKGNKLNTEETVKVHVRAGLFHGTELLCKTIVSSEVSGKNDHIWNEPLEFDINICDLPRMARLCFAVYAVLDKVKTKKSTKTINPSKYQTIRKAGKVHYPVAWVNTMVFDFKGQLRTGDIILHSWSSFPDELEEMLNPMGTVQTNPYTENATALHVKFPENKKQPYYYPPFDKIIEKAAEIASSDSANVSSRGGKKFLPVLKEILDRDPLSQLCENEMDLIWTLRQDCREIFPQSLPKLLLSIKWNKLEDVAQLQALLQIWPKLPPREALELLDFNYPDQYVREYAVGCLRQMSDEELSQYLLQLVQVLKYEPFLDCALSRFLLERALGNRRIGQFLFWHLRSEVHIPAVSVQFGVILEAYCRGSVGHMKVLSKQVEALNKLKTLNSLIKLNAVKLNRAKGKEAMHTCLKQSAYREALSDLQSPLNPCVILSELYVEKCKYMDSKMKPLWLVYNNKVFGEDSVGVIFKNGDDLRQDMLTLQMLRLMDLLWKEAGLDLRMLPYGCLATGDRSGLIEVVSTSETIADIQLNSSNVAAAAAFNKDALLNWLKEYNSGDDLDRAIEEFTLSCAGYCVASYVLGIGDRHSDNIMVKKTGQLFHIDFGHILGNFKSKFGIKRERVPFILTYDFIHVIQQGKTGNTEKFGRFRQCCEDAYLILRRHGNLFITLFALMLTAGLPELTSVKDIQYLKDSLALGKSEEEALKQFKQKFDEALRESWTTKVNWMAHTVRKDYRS", "experiment": "Binding affinity to wild-type human partial length PIK3CB (P118 to S1070 residues) expressed in mammalian expression system assessed as residual binding level at 1 uM by Kinomescan method relative to control"}, "[10]": {"target": "Serine/threonine-protein kinase PLK2 (Homo sapiens) (UniProt Q9NYY3)", "experiment": "Binding affinity to wild-type human partial length PLK2 (H58 to F354 residues) expressed in mammalian expression system assessed as residual binding level at 1 uM by Kinomescan method relative to control"}, "[11]": {"target": "Dual specificity mitogen-activated protein kinase kinase 4 (Homo sapiens) (UniProt P45985)", "sequence (P45985 whole entry, the tested form may be a part)": "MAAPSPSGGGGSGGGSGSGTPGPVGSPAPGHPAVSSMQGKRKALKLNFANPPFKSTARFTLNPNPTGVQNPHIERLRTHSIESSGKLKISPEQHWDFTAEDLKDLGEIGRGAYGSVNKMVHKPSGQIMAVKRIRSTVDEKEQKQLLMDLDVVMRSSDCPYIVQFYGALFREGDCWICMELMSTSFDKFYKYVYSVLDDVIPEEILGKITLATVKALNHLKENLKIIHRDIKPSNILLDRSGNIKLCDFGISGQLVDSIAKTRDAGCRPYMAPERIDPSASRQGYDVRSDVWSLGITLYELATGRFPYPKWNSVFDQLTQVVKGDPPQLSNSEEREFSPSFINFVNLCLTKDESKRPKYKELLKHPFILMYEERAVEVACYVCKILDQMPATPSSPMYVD", "experiment": "Binding affinity to wild-type human partial length MEK4 (S84 to D399 residues) expressed in mammalian expression system assessed as residual binding level at 1 uM by Kinomescan method relative to control"}, "[12]": {"target": "Tyrosine-protein kinase ZAP-70 (Homo sapiens) (UniProt P43403)", "experiment": "Binding affinity to wild-type human partial length ZAP70 (D20 to G299 residues) expressed in mammalian expression system assessed as residual binding level at 1 uM by Kinomescan method relative to control"}, "[13]": {"target": "Insulin receptor-related protein (Homo sapiens) (UniProt P14616)", "experiment": "Binding affinity to wild-type human partial length INSRR (R950 to E1278 residues) expressed in bacterial expression system assessed as residual binding level at 1 uM by Kinomescan method relative to control"}, "[14]": {"target": "CDK4/Cyclin D3 (Homo sapiens) (UniProt P11802+P30281)", "experiment": "Binding affinity to wild-type human full length CDK4/cyclinD3 (M1 to E303 residues) expressed in mammalian expression system assessed as residual binding level at 1 uM by Kinomescan method relative to control"}, "[15]": {"target": "Tyrosine-protein kinase Lyn (Homo sapiens) (UniProt P07948)", "sequence (P07948 2-512 limits assumed)": "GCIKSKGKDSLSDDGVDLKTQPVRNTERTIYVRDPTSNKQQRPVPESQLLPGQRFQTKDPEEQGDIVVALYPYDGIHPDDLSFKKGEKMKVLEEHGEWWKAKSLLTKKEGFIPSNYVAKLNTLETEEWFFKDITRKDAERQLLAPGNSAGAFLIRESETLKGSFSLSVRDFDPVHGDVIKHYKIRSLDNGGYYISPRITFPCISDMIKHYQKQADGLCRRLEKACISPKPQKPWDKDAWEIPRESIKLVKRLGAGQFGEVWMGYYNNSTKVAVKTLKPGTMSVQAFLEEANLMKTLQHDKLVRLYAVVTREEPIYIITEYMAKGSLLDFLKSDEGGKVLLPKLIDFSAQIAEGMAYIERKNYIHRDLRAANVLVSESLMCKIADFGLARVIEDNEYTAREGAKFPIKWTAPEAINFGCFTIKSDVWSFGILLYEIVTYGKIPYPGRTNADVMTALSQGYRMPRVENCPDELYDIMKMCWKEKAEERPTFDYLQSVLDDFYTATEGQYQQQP", "experiment": "Binding affinity to wild-type human partial length LYN (C219 to Q511 residues) expressed in bacterial expression system assessed as residual binding level at 1 uM by Kinomescan method relative to control"}, "[16]": {"target": "Myotonin-protein kinase (Homo sapiens) (UniProt Q09013)", "sequence (Q09013 whole entry, the tested form may be a part)": "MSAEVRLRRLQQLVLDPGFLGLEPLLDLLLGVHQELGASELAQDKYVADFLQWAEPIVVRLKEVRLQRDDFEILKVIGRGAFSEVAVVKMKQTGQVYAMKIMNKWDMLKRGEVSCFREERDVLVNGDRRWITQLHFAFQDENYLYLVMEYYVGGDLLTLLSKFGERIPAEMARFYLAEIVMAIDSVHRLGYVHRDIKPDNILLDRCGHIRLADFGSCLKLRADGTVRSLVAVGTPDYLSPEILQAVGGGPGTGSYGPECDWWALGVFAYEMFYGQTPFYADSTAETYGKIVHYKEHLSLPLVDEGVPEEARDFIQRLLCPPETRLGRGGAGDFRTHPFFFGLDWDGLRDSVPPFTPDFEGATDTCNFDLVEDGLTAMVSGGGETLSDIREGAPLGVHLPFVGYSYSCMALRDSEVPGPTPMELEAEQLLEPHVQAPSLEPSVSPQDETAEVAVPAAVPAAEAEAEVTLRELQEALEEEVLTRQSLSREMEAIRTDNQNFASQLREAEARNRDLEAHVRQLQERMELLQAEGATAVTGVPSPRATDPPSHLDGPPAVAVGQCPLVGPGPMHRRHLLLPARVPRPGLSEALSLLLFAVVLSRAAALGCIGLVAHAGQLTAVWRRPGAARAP", "experiment": "Binding affinity to wild-type human partial length DMPK (V47 to V415 residues) expressed in bacterial expression system assessed as residual binding level at 1 uM by Kinomescan method relative to control"}, "[17]": {"target": "Serine/threonine-protein kinase PAK 3 (Homo sapiens) (UniProt O75914)", "experiment": "Binding affinity to wild-type human full length PAK3 (M1 to R544 residues) expressed in bacterial expression system assessed as residual binding level at 1 uM by Kinomescan method relative to control"}, "[18]": {"target": "Aurora kinase A (Homo sapiens) (UniProt O14965)", "experiment": "Binding affinity to wild-type human partial length AURKA (E122 to K401 residues) expressed in mammalian expression system assessed as residual binding level at 1 uM by Kinomescan method relative to control"}, "[19]": {"test_system": "Fibroblast growth factor receptor 3 (Homo sapiens), P22607 [G697C]", "experiment": "Binding affinity to human partial length FGFR3 G697C mutant (R442 to S771 residues) expressed in bacterial expression system assessed as residual binding level at 1 uM by Kinomescan method relative to control"}, "[20]": {"target": "Serine/threonine-protein kinase D1 (Homo sapiens) (UniProt Q15139)", "experiment": "Binding affinity to wild-type human partial length PRKD1 (G551 to E870 residues) expressed in bacterial expression system assessed as residual binding level at 1 uM by Kinomescan method relative to control"}, "[21]": {"target": "Serine/threonine-protein kinase 35 (Homo sapiens) (UniProt Q8TDR2)", "experiment": "Binding affinity to wild-type human partial length STK35 (G182 to A534 residues) expressed in bacterial expression system assessed as residual binding level at 1 uM by Kinomescan method relative to control"}, "[22]": {"target": "cAMP-dependent protein kinase catalytic subunit alpha (Homo sapiens) (UniProt P17612)", "experiment": "Binding affinity to wild-type human partial length PKAC-alpha (G10 to F351 residues) expressed in bacterial expression system assessed as residual binding level at 1 uM by Kinomescan method relative to control"}, "[23]": {"target": "Serine/threonine-protein kinase 32C (Homo sapiens) (UniProt Q86UX6)", "experiment": "Binding affinity to wild-type human partial length YANK3 (M68 to G486 residues) expressed in bacterial expression system assessed as residual binding level at 1 uM by Kinomescan method relative to control"}, "[24]": {"target": "Homeodomain-interacting protein kinase 2 (Homo sapiens) (UniProt Q9H2X6)", "experiment": "Binding affinity to wild-type human partial length HIPK2 (M153 to S564 residues) expressed in mammalian expression system assessed as residual binding level at 1 uM by Kinomescan method relative to control"}}}
{"smiles": "CC(C)Nc1sc(C(=O)c2ccc(Cl)s2)c(N)c1C#N", "values": [{"measurement": "Activity", "setting": "[1]", "result": 71, "unit": "%"}, {"measurement": "Activity", "setting": "[2]", "result": 98, "unit": "%"}, {"measurement": "Activity", "setting": "[3]", "result": 83, "unit": "%"}, {"measurement": "Activity", "setting": "[4]", "result": 71, "unit": "%"}, {"measurement": "Activity", "setting": "[5]", "result": 79, "unit": "%"}, {"measurement": "Activity", "setting": "[6]", "result": 92, "unit": "%"}, {"measurement": "Activity", "setting": "[7]", "result": 94, "unit": "%"}, {"measurement": "Activity", "setting": "[8]", "result": 100, "unit": "%"}, {"measurement": "Activity", "setting": "[9]", "result": 90, "unit": "%"}, {"measurement": "Activity", "setting": "[10]", "result": 67, "unit": "%"}, {"measurement": "Activity", "setting": "[11]", "result": 82, "unit": "%"}, {"measurement": "Activity", "setting": "[12]", "result": 100, "unit": "%"}, {"measurement": "Activity", "setting": "[13]", "result": 76, "unit": "%"}, {"measurement": "Activity", "setting": "[14]", "result": 100, "unit": "%"}, {"measurement": "Activity", "setting": "[15]", "result": 80, "unit": "%"}, {"measurement": "Activity", "setting": "[16]", "result": 100, "unit": "%"}, {"measurement": "Activity", "setting": "[17]", "result": 95, "unit": "%"}, {"measurement": "Activity", "setting": "[18]", "result": 100, "unit": "%"}, {"measurement": "Activity", "setting": "[19]", "result": 96, "unit": "%"}, {"measurement": "Activity", "setting": "[20]", "result": 97, "unit": "%"}, {"measurement": "Activity", "setting": "[21]", "result": 80, "unit": "%"}, {"measurement": "Activity", "setting": "[22]", "result": 85, "unit": "%"}, {"measurement": "Activity", "setting": "[23]", "result": 82, "unit": "%"}, {"measurement": "Activity", "setting": "[24]", "result": 94, "unit": "%"}]}
